Assay results reported in patent US20230131899A1, “INHIBITORS OF MICROBIALLY INDUCED AMYLOID” (Axial Therapeutics, Inc., priority 2020, published 2023).
Where two headings read alike, the source gives them in different places.

Key:
E. coli CsgA = target: T1, E. coli CsgA (Escherichia coli, UniProt P28307); experiment: In vitro ThioflavinT assay of CsgA aggregation (CsgA ThT Assay); format: biochemical; details: 1005 minutes; for remaining activity at 25 µM: compound 25 μM; for remaining activity at 100 µM: compound 100 μM
T1 construct: made in house; host or cells: E. coli NEB 3016 slyD::kan, pET11d
T1 sequence (P28307 23-151): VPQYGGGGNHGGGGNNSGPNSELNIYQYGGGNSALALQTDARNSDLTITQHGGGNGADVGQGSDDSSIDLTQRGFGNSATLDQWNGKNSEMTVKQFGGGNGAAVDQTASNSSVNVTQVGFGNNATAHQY
Procedure, shortened: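 Purified C-terminal His-tagged CsgA, monomerised by desalting and 30-kDa filtration, at 2-20 μM with 20-40 μM ThT in 50 mM potassium phosphate pH 7.3, 1% DMSO, compounds 3.125-200 uM; room temperature, fluorescence (ex 438/em 495 nm) read every 15 min. Background-subtracted signal expressed as percent inhibition versus vehicle at 6-6.5 or 8-9 h, or as percent control AUC.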

[1] = test system: CsgA gene expression (csgBAC promoter-GFP reporter) in E. coli UTI89; experiment: In vitro live cell fluorescent reporter assay of CsgA transcription (Reporter Assay); format: cell-based; details: Escherichia coli
Procedure, shortened: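 Compounds at 0.14–100 μM (1% DMSO final) incubated 20 h at 27 °C in YESCA broth with UTI89 carrying a single-copy GFP reporter under the csgBAC intergenic promoter region, inoculum OD600 0.003. Fluorescence normalized to vehicle wells gave IC50 and 50%-of-vehicle concentration; OD600 reduction >10% flagged growth impact.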

[2] = read-out: CsgA ThT Assay (10 μM CsgA) % Control AUC at 1005 minutes, 25 μM (activity range), CsgA 10 μM, black plates, class symbol
[3] = read-out: CsgA ThT Assay (10 μM CsgA) % Control AUC at 1005 minutes, 25 μM, mean AUC as % of DMSO control, CsgA 10 μM, black plates
[4] = read-out: CsgA ThT Assay (10 μM CsgA) % Control AUC at 1005 minutes, 100 μM (activity range), CsgA 10 μM, black plates, class symbol
[5] = read-out: CsgA ThT Assay (10 μM CsgA) % Control AUC at 1005 minutes, 100 μM, mean AUC as % of DMSO control, CsgA 10 μM, black plates
[6] = read-out: Reporter Assay Abs IC50 (activity range), median Abs IC50 in the CsgA reporter assay, class symbol
[7] = read-out: Reporter Assay Abs IC50 (μM), median Abs IC50 in the CsgA reporter assay, N/A = maximum expression reduction is <50% of control

`Nc1c(Cc2cccc3ccccc23)c(-c2cccc(C(F)(F)F)c2)c2n(c1=O)C(C(=O)O)CN(CCCCCO)S2(=O)=O` (stereo not drawn) [Compound 100, 7-amino-2-(5-hydroxypentyl)-8-(naphthalen-1-ylmethyl)-6-oxo-9-(3-(trifluoromethyl)phenyl)-3,4-dihydro-2H,6H-pyrido[1,2-e][1,2,5]thiadiazine-4-carboxylic acid 1,1-dioxide] gave a remaining activity at 25 µM (E. coli CsgA; [2]) of 31 to 60%, a remaining activity at 25 µM (E. coli CsgA; [3]) of 41% and a remaining activity at 100 µM (E. coli CsgA; [4]) of 31 to 60%. The remaining activity at 100 µM (E. coli CsgA; [5]) was 31%, the IC50 [1, 6] was > 10 µM and the IC50 [1, 7] was 14.5 µM.

In the case of `CN1CC(C(=O)O)n2c(c(-c3cccc(C(F)(F)F)c3)c(Cc3cccc4ccccc34)c(C(O)CO)c2=O)S1(=O)=O` (stereo not drawn) [Compound 101, 7-(1,2-dihydroxyethyl)-2-methyl-8-(naphthalen-1-ylmethyl)-6-oxo-9-(3-(trifluoromethyl)phenyl)-3,4-dihydro-2H,6H-pyrido[1,2-e][1,2,5]thiadiazine-4-carboxylic acid 1,1-dioxide], the remaining activity at 25 µM (E. coli CsgA; [2]) is reported as > 60%, the remaining activity at 25 µM (E. coli CsgA; [3]) is reported as 61% and the remaining activity at 100 µM (E. coli CsgA; [4]) is reported as 11 to 31%. The remaining activity at 100 µM (E. coli CsgA; [5]) was 15%, the IC50 [1, 6] was > 10 µM and the IC50 [1, 7] was 29 µM.

For `CN1CC(C(=O)O)n2c(c(-c3cccc(C(F)(F)F)c3)c(Cc3cccc4ccccc34)c(N3CCNCC3)c2=O)S1(=O)=O` (stereo not drawn) [Compound 102, 2-methyl-8-(naphthalen-1-ylmethyl)-6-oxo-7-(piperazin-1-yl)-9-(3-(trifluoromethyl)phenyl)-3,4-dihydro-2H,6H-pyrido[1,2-e][1,2,5]thiadiazine-4-carboxylic acid 1,1-dioxide], the remaining activity at 25 µM (E. coli CsgA; [2]) was > 60%, the remaining activity at 25 µM (E. coli CsgA; [3]) was 90% and the remaining activity at 100 µM (E. coli CsgA; [4]) was 31 to 60%. The remaining activity at 100 µM (E. coli CsgA; [5]) was 57%, the IC50 [1, 6] was 4.6 to 10 µM and the IC50 [1, 7] was 5.4 µM.

`CN1CC(C(=O)O)n2c1c(-c1cccc(C(F)(F)F)c1)c(Cc1cccc3ccccc13)cc2=O` (stereo not drawn) [Compound 104, 1-methyl-7-(naphthalen-1-ylmethyl)-5-oxo-8-(3-(trifluoromethyl)phenyl)-1,2,3,5-tetrahydroimidazo[1,2-a]pyridine-3-carboxylic acid] was tested, and the remaining activity at 25 µM (E. coli CsgA; [2]) was > 60%, the remaining activity at 25 µM (E. coli CsgA; [3]) was 82% and the remaining activity at 100 µM (E. coli CsgA; [4]) was 31 to 60%. For the same molecule, the remaining activity at 100 µM (E. coli CsgA; [5]) was 52%, the IC50 [1, 6] was 4.6 to 10 µM and the IC50 [1, 7] was 6 µM.

For `Nc1c(Cc2cccc3ccccc23)c(-c2cccc(C(F)(F)F)c2)c2n(c1=O)C(C(=O)O)CN(C[C@H](O)[C@@H](O)[C@H](O)[C@H](O)CO)S2(=O)=O` (stereo partly drawn) [Compound 105, 7-amino-8-(naphthalen-1-ylmethyl)-6-oxo-2-((2S,3R,4R,5R)-2,3,4,5,6-pentahydroxyhexyl)-9-(3-(trifluoromethyl)phenyl)-3,4-dihydro-2H,6H-pyrido[1,2-e][1,2,5]thiadiazine-4-carboxylic acid 1,1-dioxide], the remaining activity at 25 µM (E. coli CsgA; [2]) was > 60%, the remaining activity at 25 µM (E. coli CsgA; [3]) was 102% and the remaining activity at 100 µM (E. coli CsgA; [4]) was > 60%. For the same molecule, the remaining activity at 100 µM (E. coli CsgA; [5]) was 70%, the IC50 [1, 6] was > 10 µM and the IC50 [1, 7] was 36 µM.

`O=C(O)C1CN(C(CO)CO)S(=O)(=O)c2c(-c3cccc(C(F)(F)F)c3)c(Cc3cccc4ccccc34)cc(=O)n21` (stereo not drawn) [Compound 106, 2-(1,3-dihydroxypropan-2-yl)-8-(naphthalen-1-ylmethyl)-6-oxo-9-(3-(trifluoromethyl)phenyl)-3,4-dihydro-2H,6H-pyrido[1,2-e][1,2,5]thiadiazine-4-carboxylic acid 1,1-dioxide] was tested, and the remaining activity at 25 µM (E. coli CsgA; [2]) was > 60%, the remaining activity at 25 µM (E. coli CsgA; [3]) was 95% and the remaining activity at 100 µM (E. coli CsgA; [4]) was 31 to 60%. For the same molecule, the remaining activity at 100 µM (E. coli CsgA; [5]) was 38%, the IC50 [1, 6] was > 10 µM and the IC50 [1, 7] was 28.3 µM.

In the case of `CCCN1CC(C(=O)O)n2c(c(-c3cccc(C(F)(F)F)c3)c(Cc3cccc4ccccc34)c(Br)c2=O)S1(=O)=O` (stereo not drawn) [Compound 107, 7-bromo-8-(naphthalen-1-ylmethyl)-6-oxo-2-propyl-9-(3-(trifluoromethyl)phenyl)-3,4-dihydro-2H,6H-pyrido[1,2-e][1,2,5]thiadiazine-4-carboxylic acid 1,1-dioxide], the remaining activity at 25 µM (E. coli CsgA; [2]) is reported as 31 to 60%, the remaining activity at 25 µM (E. coli CsgA; [3]) is reported as 36% and the remaining activity at 100 µM (E. coli CsgA; [4]) is reported as 31 to 60%. The remaining activity at 100 µM (E. coli CsgA; [5]) was 38%, the IC50 [1, 6] was 1.3 to 4.5 µM and the IC50 [1, 7] was 3.7 µM.

`CN(C)Cc1c(Cc2cccc3ccccc23)c(-c2cccc(C(F)(F)F)c2)c2n(c1=O)C(C(=O)O)CN(C)S2(=O)=O` (stereo not drawn) [Compound 108, 7-((dimethylamino)methyl)-2-methyl-8-(naphthalen-1-ylmethyl)-6-oxo-9-(3-(trifluoromethyl)phenyl)-3,4-dihydro-2H,6H-pyrido[1,2-e][1,2,5]thiadiazine-4-carboxylic acid 1,1-dioxide] gave a remaining activity at 25 µM (E. coli CsgA; [2]) of 11 to 31%, a remaining activity at 25 µM (E. coli CsgA; [3]) of 14% and a remaining activity at 100 µM (E. coli CsgA; [4]) of 11 to 31%. The remaining activity at 100 µM (E. coli CsgA; [5]) was 25%, the IC50 [1, 6] was < 1.3 µM and the IC50 [1, 7] was 0.6 µM.

With `CCc1c(Cc2cccc3ccccc23)c(-c2cccc(C(F)(F)F)c2)c2n(c1=O)C(C(=O)O)CN(CCCO)S2(=O)=O` (stereo not drawn) [Compound 112, 7-ethyl-2-(3-hydroxypropyl)-8-(naphthalen-1-ylmethyl)-6-oxo-9-(3-(trifluoromethyl)phenyl)-3,4-dihydro-2H,6H-pyrido[1,2-e][1,2,5]thiadiazine-4-carboxylic acid 1,1-dioxide] the remaining activity at 25 µM (E. coli CsgA; [2]) was 31 to 60%, the remaining activity at 25 µM (E. coli CsgA; [3]) was 35% and the remaining activity at 100 µM (E. coli CsgA; [4]) was 11 to 31%. For the same molecule, the remaining activity at 100 µM (E. coli CsgA; [5]) was 20%, the IC50 [1, 6] was 4.6 to 10 µM and the IC50 [1, 7] was 9 µM.

With `CCc1c(Cc2cccc3ccccc23)c(-c2cccc(C(F)(F)F)c2)c2n(c1=O)C(C(=O)O)CN(CCCCO)S2(=O)=O` (stereo not drawn) [Compound 113, 7-ethyl-2-(4-hydroxybutyl)-8-(naphthalen-1-ylmethyl)-6-oxo-9-(3-(trifluoromethyl)phenyl)-3,4-dihydro-2H,6H-pyrido[1,2-e][1,2,5]thiadiazine-4-carboxylic acid 1,1-dioxide] the remaining activity at 25 µM (E. coli CsgA; [2]) was 31 to 60%, the remaining activity at 25 µM (E. coli CsgA; [3]) was 41% and the remaining activity at 100 µM (E. coli CsgA; [4]) was 11 to 31%. It also gave a remaining activity at 100 µM (E. coli CsgA; [5]) of 24%, an IC50 [1, 6] of 4.6 to 10 µM and an IC50 [1, 7] of 4.6 µM.

For `CCc1c(Cc2cccc3ccccc23)c(-c2cccc(C(F)(F)F)c2)c2n(c1=O)C(C(=O)O)CN(CCCCCO)S2(=O)=O` (stereo not drawn) [Compound 114, 7-ethyl-2-(5-hydroxypentyl)-8-(naphthalen-1-ylmethyl)-6-oxo-9-(3-(trifluoromethyl)phenyl)-3,4-dihydro-2H,6H-pyrido[1,2-e][1,2,5]thiadiazine-4-carboxylic acid 1,1-dioxide], the remaining activity at 25 µM (E. coli CsgA; [2]) was 31 to 60%, the remaining activity at 25 µM (E. coli CsgA; [3]) was 37% and the remaining activity at 100 µM (E. coli CsgA; [4]) was 11 to 31%. It also gave a remaining activity at 100 µM (E. coli CsgA; [5]) of 21%, an IC50 [1, 6] of 4.6 to 10 µM and an IC50 [1, 7] of 7 µM.

`CCc1c(Cc2cccc3ccccc23)c(-c2cccc(C(F)(F)F)c2)c2n(c1=O)C(C(=O)O)CN(C(C)C)S2(=O)=O` (stereo not drawn) [Compound 115, 7-ethyl-2-isopropyl-8-(naphthalen-1-ylmethyl)-6-oxo-9-(3-(trifluoromethyl)phenyl)-3,4-dihydro-2H,6H-pyrido[1,2-e][1,2,5]thiadiazine-4-carboxylic acid 1,1-dioxide] showed a remaining activity at 25 µM (E. coli CsgA; [2]) of 31 to 60%, a remaining activity at 25 µM (E. coli CsgA; [3]) of 35% and a remaining activity at 100 µM (E. coli CsgA; [4]) of 11 to 31%. The remaining activity at 100 µM (E. coli CsgA; [5]) was 23%, the IC50 [1, 6] was 4.6 to 10 µM and the IC50 [1, 7] was 7.2 µM.

With `CCCN1CC(C(=O)O)n2c(c(-c3cccc(C(F)(F)F)c3)c(Cc3cccc4ccccc34)c(CC)c2=O)S1(=O)=O` (stereo not drawn) [Compound 117, 7-ethyl-8-(naphthalen-1-ylmethyl)-6-oxo-2-propyl-9-(3-(trifluoromethyl)phenyl)-3,4-dihydro-2H,6H-pyrido[1,2-e][1,2,5]thiadiazine-4-carboxylic acid 1,1-dioxide] the remaining activity at 25 µM (E. coli CsgA; [2]) was 31 to 60%, the remaining activity at 25 µM (E. coli CsgA; [3]) was 32% and the remaining activity at 100 µM (E. coli CsgA; [4]) was 11 to 31%. For the same molecule, the remaining activity at 100 µM (E. coli CsgA; [5]) was 22%, the IC50 [1, 6] was 4.6 to 10 µM and the IC50 [1, 7] was 5.9 µM.

With `O=c1cc(Cc2cccc3ccccc23)c(-c2cccc(C(F)(F)F)c2)c2n1C(CO)CS2` (stereo not drawn) [Compound 118, 3-(hydroxymethyl)-7-(naphthalen-1-ylmethyl)-8-(3-(trifluoromethyl)phenyl)-2,3-dihydro-5H-thiazolo[3,2-a]pyridin-5-one] the remaining activity at 25 µM (E. coli CsgA; [2]) was > 60%, the remaining activity at 25 µM (E. coli CsgA; [3]) was 92% and the remaining activity at 100 µM (E. coli CsgA; [4]) was > 60%. It also gave a remaining activity at 100 µM (E. coli CsgA; [5]) of 76%, an IC50 [1, 6] of 1.3 to 4.5 µM and an IC50 [1, 7] of 3.9 µM.

`CCc1c(Cc2cccc3ccccc23)c(-c2cccc(C(F)(F)F)c2)c2n(c1=O)C(C(=O)O)CN([C@H]1CC[C@@H](O)CC1)S2(=O)=O` (stereo partly drawn) [Compound 124, 7-ethyl-2-((1s,4s)-4-hydroxycyclohexyl)-8-(naphthalen-1-ylmethyl)-6-oxo-9-(3-(trifluoromethyl)phenyl)-3,4-dihydro-2H,6H-pyrido[1,2-e][1,2,5]thiadiazine-4-carboxylic acid 1,1-dioxide] gave a remaining activity at 25 µM (E. coli CsgA; [2]) of 31 to 60%, a remaining activity at 25 µM (E. coli CsgA; [3]) of 35% and a remaining activity at 100 µM (E. coli CsgA; [4]) of 11 to 31%. For the same molecule, the remaining activity at 100 µM (E. coli CsgA; [5]) was 21%, the IC50 [1, 6] was 1.3 to 4.5 µM and the IC50 [1, 7] was 3.1 µM.
